Results on 3 molecules are retold here after US6413761B2, “Decaprenyl diphosphate synthetase gene” (Toyota Jidosha Kabushiki Kaisha, priority 1997, dated 2002).

SMILES strings stand for the structures.

For the experiment, the system named is DPP synthetase. The experiment can be described thus: Substrate specificity of the DPP synthetase on various allylic primers ([14C]IPP incorporation). The class given is biochemical, Paracoccus denitrificans. The conditions noted are these: for Enzyme Activity: allylic primer 25 μM, [14C]IPP 125 μM, 37° C., 1 hour; for Activity of the DPP synthetase with the allylic substrate (in words): substance used as allylic primer substrate. As for the experimental part:
A 200 μl reaction solution shown below was prepared using an appropriate amount of the crude enzyme extract, various allylic primers and [^1-14C]IPP (54 or 57 Ci/mol; Amersham).
The solution was incubated at 37° C. for 1 hour to allow an enzyme reaction. Then, 200 μl of saturated aqueous NaCl solution and 1 ml of n-BuOH saturated with saturated aqueous NaCl solution were added thereto and agitated well. The resultant solution was centrifuged to extract the reaction products. 200 μl of the BuOH layer was collected, and 3 ml of Clear Sol was added thereto. Then, the enzyme activity was determined by measuring the radioactivity in the BuOH extract with a liquid scintillation counter. The enzyme activity was expressed in unit, one unit being the amount of IPP (nmol) taken into the reaction products per 1 minute.
The substrate specificity of this DPP synthetase has been examined on various allyl primers. The unit of enzyme activity is as defined above.

Take `CC(C)=CCC/C(C)=C/COP(=O)(O)OP(=O)(O)O` [GPP, geranyl diphosphate]: the “Activity of the DPP synthetase with the allylic substrate (in words)” value (“Activity of the DPP synthetase” below) is reported as “slight activity”. For the same molecule, for the setting “+Triton X-100 (0.5%)”, the “Enzyme Activity” value is listed as 19.8 ×10^−3 unit. Besides, the “Enzyme Activity” value (−Triton X-100) is given as 1.78 ×10^−3 unit.
On to `CC(C)=CCC/C(C)=C/CC/C(C)=C/CC/C(C)=C\COP(=O)(O)OP(=O)(O)O` [ZEE-GGPP, ZEE-geranylgeranyl diphosphate], for which the “Activity of the DPP synthetase” value was “little activity”. Besides, the “Enzyme Activity” value (+Triton X-100 (0.5%)) is listed as 3.68 ×10^−3 unit. Besides, the “Enzyme Activity” value (−Triton X-100) was 2.47 ×10^−3 unit.
Regarding `CC(C)=CCC/C(C)=C/CC/C(C)=C/CC/C(C)=C/COP(=O)(O)OP(=O)(O)O` [EEE-GGPP, EEE-geranylgeranyl diphosphate], the “Activity of the DPP synthetase” value was “strong activity”. Under “+Triton X-100 (0.5%)”, the “Enzyme Activity” value is given as 35.33 ×10^−3 unit. Besides, the “Enzyme Activity” value (−Triton X-100) is 3.22 ×10^−3 unit.
